From ChEMBL document CHEMBL1201862, “PubChem BioAssay data set” (2004)
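Cultured in 96-well plates, cells were exposed to test compound for 48 hours across five concentrations. Here, GI50 denotes the concentration required for 50% inhibition of growth.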 The source made the active and inactive calls. No stated cut-off is given here; in the data, active = GI50 up to about 1.1 µM and inactive = higher.

How the values were obtained:
Assay in all cases: NCI anticancer screen, dose series, 48 h
[1] = test system: SR
[2] = test system: MDA-N
[3] = test system: CCRF-CEM
[4] = test system: 786-0
[5] = test system: PC-3
[6] = test system: LOX IMVI
[7] = test system: UACC-257
[8] = test system: UO-31
[9] = test system: OVCAR-3
[10] = test system: ACHN
[11] = test system: SK-MEL-28
[12] = test system: MDA-MB-435
[13] = test system: SK-OV-3
[14] = test system: COLO 205
[15] = test system: M14
[16] = test system: K562
[17] = test system: RPMI-8226
[18] = test system: UACC-62
[19] = test system: OVCAR-5
[20] = test system: SNB-19
[21] = test system: SK-MEL-2
[22] = test system: Hs-578T
[23] = test system: SNB-75
[24] = test system: SF-295
[25] = test system: A498
[26] = test system: HOP-62
[27] = test system: SW-620
[28] = test system: NCI/ADR-RES
[29] = test system: Malme-3M
[30] = test system: HCT-116
[31] = test system: OVCAR-8
[32] = test system: HOP-92
[33] = test system: T47D
[34] = test system: A549
[35] = test system: CAKI-1
[36] = test system: U-251
[37] = test system: MOLT-4
[38] = test system: TK-10
[39] = test system: NCI-H522
[40] = test system: SN12C
[41] = test system: RXF 393
[42] = test system: MCF7
[43] = test system: HCT-15
[44] = test system: EKVX
[45] = test system: HT-29
[46] = test system: HCC 2998
[47] = test system: SF-268
[48] = test system: HL-60
[49] = test system: NCI-H226
[50] = test system: SF-539
[51] = test system: DU-145
[52] = test system: BT-549
[53] = test system: MDA-MB-231
[54] = test system: IGROV-1
[55] = test system: KM12
[56] = test system: SK-MEL-5
[57] = test system: NCI-H460
[58] = test system: OVCAR-4
[59] = test system: NCI-H23

`CCCC1=C(OC)C(=O)c2c(C)cc(Cl)nc2C1=O` was tested, and the GI50 [1] was 2.11 µM (inactive), the GI50 [2] was 1.73 µM (inactive) and the GI50 [3] was 0.286 µM (active). For the same molecule, the GI50 [4] was 2.37 µM (inactive), the GI50 [5] was 9.08 µM (inactive) and the GI50 [6] was 2.01 µM (inactive). The GI50 [7] was 6.53 µM (inactive), the GI50 [8] was 13.5 µM (inactive) and the GI50 [9] was 2.81 µM (inactive). For the same molecule, the GI50 [10] was 6.92 µM (inactive), the GI50 [11] was 6.81 µM (inactive) and the GI50 [12] was 1.84 µM (inactive). For the same molecule, the GI50 [13] was 17 µM (inactive), the GI50 [14] was 7.93 µM (inactive) and the GI50 [15] was 7 µM (inactive). The GI50 [16] was 2.02 µM (inactive), the GI50 [17] was 2.16 µM (inactive) and the GI50 [18] was 3.3 µM (inactive). The GI50 [19] was 14.5 µM (inactive), the GI50 [20] was 14.7 µM (inactive) and the GI50 [21] was 10.5 µM (inactive). For the same molecule, the GI50 [22] was 3.75 µM (inactive), the GI50 [23] was 7.62 µM (inactive) and the GI50 [24] was 14.7 µM (inactive). For the same molecule, the GI50 [25] was 20.2 µM (inactive), the GI50 [26] was 15.5 µM (inactive) and the GI50 [27] was 3.24 µM (inactive). For the same molecule, the GI50 [28] was 4.55 µM (inactive), the GI50 [29] was 3.02 µM (inactive) and the GI50 [30] was 2.62 µM (inactive). The GI50 [31] was 8.89 µM (inactive), the GI50 [32] was 5.79 µM (inactive) and the GI50 [33] was 2.99 µM (inactive). The GI50 [34] was 13.6 µM (inactive), the GI50 [35] was 8.97 µM (inactive) and the GI50 [36] was 6.07 µM (inactive). The GI50 [37] was 1.55 µM (inactive), the GI50 [38] was 19.9 µM (inactive) and the GI50 [39] was 2.43 µM (inactive). For the same molecule, the GI50 [40] was 4.14 µM (inactive), the GI50 [41] was 7.67 µM (inactive) and the GI50 [42] was 2.47 µM (inactive). The GI50 [43] was 3.05 µM, the GI50 [44] was 7.66 µM (inactive) and the GI50 [45] was 4.3 µM (inactive). The GI50 [46] was 7.62 µM (inactive), the GI50 [47] was 7.08 µM (inactive) and the GI50 [48] was 1.45 µM (inactive). The GI50 [49] was 16.7 µM (inactive), the GI50 [50] was 7.43 µM (inactive) and the GI50 [51] was 15.1 µM (inactive). The GI50 [52] was 13.6 µM (inactive), the GI50 [53] was 5.53 µM (inactive) and the GI50 [54] was 11.7 µM (inactive). For the same molecule, the GI50 [55] was 7.29 µM (inactive), the GI50 [56] was 4.06 µM (inactive) and the GI50 [57] was 13.7 µM (inactive). The GI50 [58] was 6.37 µM (inactive) and the GI50 [59] was 4.11 µM (inactive).

In the case of `C/C=C/C(C#N)(Cc1ccccc1)OP1(=O)OC(c2ccccc2)C(C)N1C` (stereo not drawn), the GI50 [1] is reported as 36 µM (inactive), the GI50 [2] is reported as 88.1 µM (inactive) and the GI50 [3] is reported as 19.4 µM (inactive). For the same molecule, the GI50 [4] was > 100 µM (inactive), the GI50 [5] was 58.6 µM (inactive) and the GI50 [6] was 44.1 µM (inactive). For the same molecule, the GI50 [7] was 65.8 µM (inactive), the GI50 [8] was 55.3 µM (inactive) and the GI50 [9] was 56.8 µM (inactive). For the same molecule, the GI50 [10] was 84.1 µM (inactive), the GI50 [11] was > 100 µM (inactive) and the GI50 [12] was 48.4 µM (inactive). For the same molecule, the GI50 [13] was > 100 µM (inactive), the GI50 [14] was > 100 µM (inactive) and the GI50 [15] was > 100 µM (inactive). The GI50 [16] was 38.5 µM (inactive), the GI50 [17] was 33 µM (inactive) and the GI50 [18] was 56.5 µM (inactive). The GI50 [19] was > 100 µM (inactive), the GI50 [20] was 78.5 µM (inactive) and the GI50 [21] was > 100 µM (inactive). For the same molecule, the GI50 [22] was 89.5 µM (inactive), the GI50 [23] was > 100 µM (inactive) and the GI50 [24] was 49.1 µM (inactive). For the same molecule, the GI50 [25] was 69.3 µM (inactive), the GI50 [26] was > 100 µM (inactive) and the GI50 [27] was > 100 µM (inactive). For the same molecule, the GI50 [28] was 72.4 µM (inactive), the GI50 [29] was > 100 µM (inactive) and the GI50 [30] was > 100 µM (inactive). For the same molecule, the GI50 [31] was 86.7 µM (inactive), the GI50 [32] was 73.3 µM (inactive) and the GI50 [33] was 47.9 µM (inactive). The GI50 [34] was 66.4 µM (inactive), the GI50 [35] was > 100 µM (inactive) and the GI50 [36] was 88.5 µM (inactive). For the same molecule, the GI50 [37] was 21.2 µM (inactive), the GI50 [38] was > 100 µM (inactive) and the GI50 [39] was 50.1 µM (inactive). The GI50 [40] was 81.7 µM (inactive), the GI50 [41] was > 100 µM (inactive) and the GI50 [42] was 54.2 µM (inactive). For the same molecule, the GI50 [43] was 79.6 µM, the GI50 [44] was 71.6 µM (inactive) and the GI50 [45] was 69.2 µM (inactive). For the same molecule, the GI50 [46] was 81.3 µM (inactive), the GI50 [47] was > 100 µM (inactive) and the GI50 [48] was 17 µM (inactive). For the same molecule, the GI50 [50] was > 100 µM (inactive), the GI50 [51] was > 100 µM (inactive) and the GI50 [52] was 90.2 µM (inactive). The GI50 [53] was > 100 µM (inactive), the GI50 [54] was 95.3 µM (inactive) and the GI50 [55] was 45.6 µM (inactive). The GI50 [56] was 48.9 µM (inactive), the GI50 [57] was 43.6 µM (inactive) and the GI50 [59] was 87.3 µM (inactive).

For `Nc1nc(=S)n(-c2ccc(Cl)cc2)c2nc3ccccc3cc12`, the GI50 [1] was 16.1 µM (inactive), the GI50 [2] was 90.8 µM (inactive) and the GI50 [3] was 42.4 µM (inactive). For the same molecule, the GI50 [4] was 53.3 µM (inactive), the GI50 [5] was 46.8 µM (inactive) and the GI50 [6] was 44.1 µM (inactive). For the same molecule, the GI50 [7] was > 100 µM (inactive), the GI50 [8] was 33.6 µM (inactive) and the GI50 [9] was 45 µM (inactive). The GI50 [10] was 18.8 µM (inactive), the GI50 [11] was > 100 µM (inactive) and the GI50 [12] was 80.4 µM (inactive). The GI50 [13] was 22.7 µM (inactive), the GI50 [14] was 36 µM (inactive) and the GI50 [15] was 84.9 µM (inactive). For the same molecule, the GI50 [16] was 66.7 µM (inactive), the GI50 [17] was 59.6 µM (inactive) and the GI50 [18] was 40.9 µM (inactive). For the same molecule, the GI50 [19] was 83.2 µM (inactive), the GI50 [20] was > 100 µM (inactive) and the GI50 [21] was 49.7 µM (inactive). The GI50 [22] was 83.2 µM (inactive), the GI50 [23] was 43.5 µM (inactive) and the GI50 [24] was 64.6 µM (inactive). For the same molecule, the GI50 [25] was > 100 µM (inactive), the GI50 [26] was 55.8 µM (inactive) and the GI50 [27] was 95.5 µM (inactive). For the same molecule, the GI50 [28] was > 100 µM (inactive), the GI50 [29] was 32.5 µM (inactive) and the GI50 [30] was 40.7 µM (inactive). The GI50 [31] was 50.1 µM (inactive), the GI50 [32] was 9.82 µM (inactive) and the GI50 [33] was 18.7 µM (inactive). The GI50 [34] was 97.7 µM (inactive), the GI50 [35] was 30.1 µM (inactive) and the GI50 [36] was 48.9 µM (inactive). The GI50 [38] was 28.7 µM (inactive), the GI50 [39] was 45.3 µM (inactive) and the GI50 [40] was > 100 µM (inactive). The GI50 [41] was 57.9 µM (inactive), the GI50 [42] was 15.4 µM (inactive) and the GI50 [43] was 39.9 µM. For the same molecule, the GI50 [44] was 15.3 µM (inactive), the GI50 [45] was 79.6 µM (inactive) and the GI50 [46] was 64.6 µM (inactive). The GI50 [47] was 36.2 µM (inactive), the GI50 [48] was > 100 µM (inactive) and the GI50 [49] was 50.6 µM (inactive). The GI50 [51] was 43.6 µM (inactive), the GI50 [52] was 19.1 µM (inactive) and the GI50 [53] was 60.5 µM (inactive). The GI50 [54] was 1.69 µM (inactive), the GI50 [55] was 29.3 µM (inactive) and the GI50 [56] was 51.8 µM (inactive). For the same molecule, the GI50 [57] was 46.2 µM (inactive), the GI50 [58] was 46.7 µM (inactive) and the GI50 [59] was 56.9 µM (inactive).
